Test results reported in ChEMBL document CHEMBL1201862, “PubChem BioAssay data set” (2004).
Active and inactive are the calls of the source.

Columns and labels:
INS1 = test: INS-1E survival protection against cytokine death – cell-based, luminescence, retest, dose response (AID 449756); type: functional; details: Rattus norvegicus;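 note: cell death triggered by IL-1 beta plus TNF-alpha plus IFN-gamma mixture; protective hits raise ATP signal compared with cytokine alone wells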
[1] = target: T1, Corticotropin-releasing factor receptor 2/Corticotropin-releasing factor-binding protein (Homo sapiens, UniProt P24387+Q13324); test: activators of CRF receptor 2 with binding protein – uHTS hits, confirmation (AID 602473); type: functional; details: read-out: EC50_Mean
T1 sequence (Q13324 whole entry): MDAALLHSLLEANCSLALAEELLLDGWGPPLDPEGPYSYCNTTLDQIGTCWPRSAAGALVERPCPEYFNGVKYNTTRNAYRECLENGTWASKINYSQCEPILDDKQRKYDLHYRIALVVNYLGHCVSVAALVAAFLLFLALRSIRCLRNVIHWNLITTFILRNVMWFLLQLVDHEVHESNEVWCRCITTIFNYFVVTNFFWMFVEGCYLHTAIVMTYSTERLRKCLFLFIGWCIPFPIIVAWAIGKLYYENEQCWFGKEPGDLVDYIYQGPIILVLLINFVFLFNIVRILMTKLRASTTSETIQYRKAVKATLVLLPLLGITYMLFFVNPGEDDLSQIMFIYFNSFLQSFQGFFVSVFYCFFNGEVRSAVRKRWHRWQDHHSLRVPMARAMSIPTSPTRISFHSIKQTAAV
T1 sequence (P24387 whole entry): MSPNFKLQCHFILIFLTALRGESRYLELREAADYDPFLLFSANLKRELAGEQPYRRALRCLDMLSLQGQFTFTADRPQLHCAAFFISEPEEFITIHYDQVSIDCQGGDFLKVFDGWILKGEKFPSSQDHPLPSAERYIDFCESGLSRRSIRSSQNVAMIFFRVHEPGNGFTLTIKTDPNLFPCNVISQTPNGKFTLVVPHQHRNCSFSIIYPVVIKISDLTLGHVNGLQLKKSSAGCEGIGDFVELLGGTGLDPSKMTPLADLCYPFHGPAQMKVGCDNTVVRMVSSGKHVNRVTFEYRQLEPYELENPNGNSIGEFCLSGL

BJ [2] = test: cells; type: functional, cell-based; details: Homo sapiens
BJ [3] = test: BJ-TERT-LT-ST fibroblast viability loss – cell-based, RAS-independent, luminescence, dose response (AID 1935); type: functional; details: Homo sapiens;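 note: BJ fibroblasts immortalized with TERT plus LT and ST oncogenes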
[4] = DRD fibroblast viability loss – cell-based, non-viral oncogenic, luminescence, dose response (AID 1934); type: functional; details: Homo sapiens
BJ [5] = test: BJ-TERT fibroblast viability loss – cell-based, RAS-independent, luminescence, dose response (AID 1933); type: functional; details: Homo sapiens
[6] = target: T2, Rac GTPase-activating protein 1 (Homo sapiens, UniProt Q9H0H5); test: blockers of MgcRacGAP-driven Rac1 GTP hydrolysis – biochemical, ADP Hunter fluorescence, primary and confirmatory, confirmation (AID 624330); type: functional
T2 sequence (Q9H0H5 whole entry): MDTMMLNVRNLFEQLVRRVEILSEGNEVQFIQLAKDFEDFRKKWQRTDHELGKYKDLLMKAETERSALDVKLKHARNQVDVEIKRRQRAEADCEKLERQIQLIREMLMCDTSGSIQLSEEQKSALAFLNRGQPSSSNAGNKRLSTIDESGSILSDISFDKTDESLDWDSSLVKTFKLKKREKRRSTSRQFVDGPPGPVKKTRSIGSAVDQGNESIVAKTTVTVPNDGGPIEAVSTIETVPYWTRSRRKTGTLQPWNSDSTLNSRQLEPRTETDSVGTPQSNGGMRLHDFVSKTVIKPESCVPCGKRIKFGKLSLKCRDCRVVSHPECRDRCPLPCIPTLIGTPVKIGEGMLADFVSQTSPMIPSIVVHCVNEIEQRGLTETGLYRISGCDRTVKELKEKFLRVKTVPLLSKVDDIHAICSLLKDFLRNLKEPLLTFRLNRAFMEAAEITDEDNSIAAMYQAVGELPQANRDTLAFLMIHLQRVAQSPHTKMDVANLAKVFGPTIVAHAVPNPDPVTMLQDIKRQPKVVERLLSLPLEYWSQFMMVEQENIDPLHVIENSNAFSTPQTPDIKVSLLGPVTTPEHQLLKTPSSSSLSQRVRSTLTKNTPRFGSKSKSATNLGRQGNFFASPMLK

Protein skinhead-1 = target: T3, Protein skinhead-1 (Caenorhabditis elegans, UniProt P34707); type: functional
T3 sequence (P34707 whole entry): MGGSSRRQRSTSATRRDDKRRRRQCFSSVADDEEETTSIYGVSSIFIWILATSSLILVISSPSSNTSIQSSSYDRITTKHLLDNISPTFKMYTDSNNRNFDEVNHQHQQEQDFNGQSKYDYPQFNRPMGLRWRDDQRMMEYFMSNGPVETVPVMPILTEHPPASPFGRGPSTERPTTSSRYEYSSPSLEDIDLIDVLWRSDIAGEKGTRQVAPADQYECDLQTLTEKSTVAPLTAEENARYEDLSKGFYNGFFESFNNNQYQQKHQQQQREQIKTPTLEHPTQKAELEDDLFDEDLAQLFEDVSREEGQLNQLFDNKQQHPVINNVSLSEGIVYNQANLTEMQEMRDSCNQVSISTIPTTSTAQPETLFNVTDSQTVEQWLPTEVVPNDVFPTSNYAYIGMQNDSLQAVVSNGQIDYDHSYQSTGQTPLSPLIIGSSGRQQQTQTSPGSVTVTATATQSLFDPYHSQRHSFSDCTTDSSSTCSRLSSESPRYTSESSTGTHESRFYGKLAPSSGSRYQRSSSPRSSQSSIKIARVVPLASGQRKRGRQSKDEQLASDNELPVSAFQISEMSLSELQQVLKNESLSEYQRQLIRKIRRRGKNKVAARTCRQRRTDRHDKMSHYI

Protein RecA = target: T4, Protein RecA (Mycobacterium tuberculosis, UniProt P9WHJ3); test: Fluorescence Cell-Free Homogeneous Dose Retest to Identify Inhibitors of RecA-Intein Splicing Activity. [Related pubchem assays (depositor defined):AID2097, AID2223, AID489010, AID492950]; type: functional
T4 sequence (P9WHJ3 whole entry): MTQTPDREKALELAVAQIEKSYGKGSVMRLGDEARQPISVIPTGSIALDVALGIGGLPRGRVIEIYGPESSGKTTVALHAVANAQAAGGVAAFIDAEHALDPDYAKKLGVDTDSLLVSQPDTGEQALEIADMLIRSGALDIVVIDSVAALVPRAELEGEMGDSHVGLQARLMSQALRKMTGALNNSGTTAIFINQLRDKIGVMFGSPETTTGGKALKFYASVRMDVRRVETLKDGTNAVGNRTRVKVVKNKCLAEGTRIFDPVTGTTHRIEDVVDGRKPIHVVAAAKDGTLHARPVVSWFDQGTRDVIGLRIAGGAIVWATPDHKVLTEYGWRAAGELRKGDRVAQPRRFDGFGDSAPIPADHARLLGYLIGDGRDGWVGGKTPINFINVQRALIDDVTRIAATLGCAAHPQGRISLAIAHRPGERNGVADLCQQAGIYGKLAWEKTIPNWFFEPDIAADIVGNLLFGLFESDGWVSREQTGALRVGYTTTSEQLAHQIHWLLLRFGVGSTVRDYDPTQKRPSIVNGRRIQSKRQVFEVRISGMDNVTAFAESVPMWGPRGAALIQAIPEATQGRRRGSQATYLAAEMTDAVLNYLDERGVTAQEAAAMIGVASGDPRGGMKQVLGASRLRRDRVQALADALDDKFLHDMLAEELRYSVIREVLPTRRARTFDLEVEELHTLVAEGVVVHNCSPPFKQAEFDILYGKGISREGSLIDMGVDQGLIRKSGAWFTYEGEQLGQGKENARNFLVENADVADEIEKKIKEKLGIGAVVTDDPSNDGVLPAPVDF

[7] = target: T5, Replicative DNA helicase DnaB (Mycobacterium tuberculosis, UniProt P9WMR3); test: DnaB intein splicing inhibitors, dose response, biochemical, cell-free fluorescence (AID 449749); type: functional
T5 sequence (P9WMR3 whole entry): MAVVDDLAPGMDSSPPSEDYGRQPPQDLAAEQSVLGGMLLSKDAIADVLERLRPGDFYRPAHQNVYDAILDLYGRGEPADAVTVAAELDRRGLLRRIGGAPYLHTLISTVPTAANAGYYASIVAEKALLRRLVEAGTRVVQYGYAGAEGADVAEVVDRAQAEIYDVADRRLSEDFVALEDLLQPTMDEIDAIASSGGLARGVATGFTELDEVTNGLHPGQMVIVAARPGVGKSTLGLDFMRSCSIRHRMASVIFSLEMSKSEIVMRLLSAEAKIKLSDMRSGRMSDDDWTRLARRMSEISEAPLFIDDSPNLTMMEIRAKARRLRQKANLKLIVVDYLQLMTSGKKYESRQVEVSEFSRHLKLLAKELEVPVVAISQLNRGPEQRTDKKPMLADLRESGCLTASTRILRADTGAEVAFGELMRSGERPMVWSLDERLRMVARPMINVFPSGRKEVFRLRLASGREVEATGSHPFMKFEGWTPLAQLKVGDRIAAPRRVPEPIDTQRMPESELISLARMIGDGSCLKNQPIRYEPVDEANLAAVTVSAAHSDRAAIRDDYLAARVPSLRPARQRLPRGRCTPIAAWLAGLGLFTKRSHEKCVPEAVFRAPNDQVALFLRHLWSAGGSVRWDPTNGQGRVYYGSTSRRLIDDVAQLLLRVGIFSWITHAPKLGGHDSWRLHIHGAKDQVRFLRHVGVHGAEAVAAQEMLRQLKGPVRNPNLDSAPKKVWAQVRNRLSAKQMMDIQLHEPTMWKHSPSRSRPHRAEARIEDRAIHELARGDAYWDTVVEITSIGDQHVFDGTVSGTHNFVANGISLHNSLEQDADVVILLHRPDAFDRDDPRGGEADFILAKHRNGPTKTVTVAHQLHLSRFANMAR

[8] = target: FAD-linked sulfhydryl oxidase ALR (Homo sapiens, UniProt P55789); test: ALR-catalysed DTT oxidation blockers – biochemical, H2O2 detection, luminescence, cherry-pick, dose response (AID 493248)
Large T antigen = Large T antigen (Simian virus 40, UniProt P03070); type: functional, Betapolyomavirus macacae;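 note: Confirmatory-stage PubChem screen for compounds that inhibit SV40 T antigen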
[9] = target: T6, Heat shock factor protein 1 (Mus musculus, UniProt P38532); test: enhancement of HSF1-driven luciferase signal – cell-based, NIH3T3, luminescence, dose retest, confirmation (AID 435004); type: functional;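 note: stress induced by proteasome inhibitor MG132 added 30 min after compound; luciferase reporter driven by HSF1 response element in NIH3T3 cells; actives raise luminescence as potentiators of the MG132 stress response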
T6 sequence (P38532 whole entry): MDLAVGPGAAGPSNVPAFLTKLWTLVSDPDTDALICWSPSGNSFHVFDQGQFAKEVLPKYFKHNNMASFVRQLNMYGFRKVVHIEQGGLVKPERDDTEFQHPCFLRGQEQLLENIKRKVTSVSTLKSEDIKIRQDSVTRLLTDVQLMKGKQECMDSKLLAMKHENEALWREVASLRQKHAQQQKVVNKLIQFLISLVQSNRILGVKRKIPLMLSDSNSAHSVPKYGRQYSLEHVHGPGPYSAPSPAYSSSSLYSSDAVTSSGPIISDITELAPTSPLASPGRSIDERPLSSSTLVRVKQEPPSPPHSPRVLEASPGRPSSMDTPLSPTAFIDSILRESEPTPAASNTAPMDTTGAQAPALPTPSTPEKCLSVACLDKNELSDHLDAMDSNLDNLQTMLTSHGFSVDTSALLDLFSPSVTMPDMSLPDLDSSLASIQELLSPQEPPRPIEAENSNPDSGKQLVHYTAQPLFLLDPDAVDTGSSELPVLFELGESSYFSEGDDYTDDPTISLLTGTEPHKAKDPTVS

Chain of Large T antigen (P03070 whole entry): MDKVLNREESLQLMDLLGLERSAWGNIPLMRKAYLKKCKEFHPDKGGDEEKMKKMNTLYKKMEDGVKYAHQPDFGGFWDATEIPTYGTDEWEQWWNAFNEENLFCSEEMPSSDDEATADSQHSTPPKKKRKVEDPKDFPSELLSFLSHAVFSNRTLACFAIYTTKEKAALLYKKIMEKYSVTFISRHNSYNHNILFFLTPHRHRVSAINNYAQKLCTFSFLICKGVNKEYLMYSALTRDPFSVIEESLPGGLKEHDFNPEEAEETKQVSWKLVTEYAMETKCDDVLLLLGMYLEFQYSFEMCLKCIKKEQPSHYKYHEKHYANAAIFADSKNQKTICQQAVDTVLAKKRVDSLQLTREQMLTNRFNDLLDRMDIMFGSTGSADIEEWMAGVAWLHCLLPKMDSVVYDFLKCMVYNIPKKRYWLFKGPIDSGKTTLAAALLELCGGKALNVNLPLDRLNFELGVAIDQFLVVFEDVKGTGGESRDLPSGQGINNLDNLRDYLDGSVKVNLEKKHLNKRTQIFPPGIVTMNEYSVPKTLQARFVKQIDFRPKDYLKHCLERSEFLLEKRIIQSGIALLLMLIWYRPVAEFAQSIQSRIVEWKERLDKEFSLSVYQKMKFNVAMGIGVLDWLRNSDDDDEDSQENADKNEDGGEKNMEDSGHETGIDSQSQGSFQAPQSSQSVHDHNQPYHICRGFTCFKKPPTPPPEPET
Chain of FAD-linked sulfhydryl oxidase ALR (P55789 whole entry): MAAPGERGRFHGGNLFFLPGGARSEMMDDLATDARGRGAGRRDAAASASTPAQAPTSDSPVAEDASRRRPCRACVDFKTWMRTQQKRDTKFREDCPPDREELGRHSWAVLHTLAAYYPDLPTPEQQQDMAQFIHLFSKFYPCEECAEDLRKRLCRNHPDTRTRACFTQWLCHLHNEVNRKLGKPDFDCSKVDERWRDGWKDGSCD

Compound	IC50 [6]	EC50 (Protein RecA)	AC50 [7]	also measured
Cc1ccc(CSC(Nc2ccc(F)cc2)=C(C#N)C#N)cc1	–	–	–	AC50 (INS1): 3.19 µM (active); EC50 [1]: > 53 µM (inactive); EC50 (BJ [2]): > 150 µM (not active); EC50 (BJ [3]): > 75 µM (not active); EC50 [4]: 76.4 µM (active); EC50 (BJ [5]): 14.1 µM (active)
NC(CSS(=O)(=O)O)=NCCC12CC3CC(CC(O)(C3)C1)C2	142 µM (active)	–	–	–
CN(C)c1cccc(O)c1	–	–	–	IC50 (Protein skinhead-1): > 100 µM (inactive)
CC(NS(=O)(=O)c1ccc(Cl)cc1)C(=O)OCC(=O)Nc1ccc(N(C)C)cc1 (stereo not given)	65.1 µM (active)	–	–	–
COc1ccc(NC2CCCN(C(=O)c3ccc(C)c(N4CCNC4=O)c3)C2)cc1 (stereo not given)	129 µM (active)	–	–	–
NSc1nc(N)c2nc(-c3ccccc3)c(-c3ccccc3)nc2n1	99.2 µM (active)	–	–	–
O=C(c1c[nH]c(C(=O)C(Cl)(Cl)Cl)c1)c1ccccc1F	–	7.39 µM (active)	12.6 µM (active)	–
COC(=O)CCSc1cc(NCCOC(C)=O)c([N+](=O)[O-])c2nonc12	–	4.63 µM (active)	37.5 µM (active)	–
COc1cc(/C=N/NC(=O)CCn2nnc3ccccc32)ccc1O	58.7 µM (active)	–	–	AC50 [8]: 0.236 µM (active); IC50 (Large T antigen): 8.58 µM (active)
CN(C)c1ccc(NC(=O)c2ccncc2)c2ccccc12	–	45.4 µM (active)	66.5 µM (active)	–
CC(C)(C)NC(=O)C(c1cccs1)N(CC1CCCO1)C(=O)c1ccc(-c2ccccc2)[nH]1 (stereo not given)	–	169 µM (active)	37.9 µM (active)	–
COc1ccc(OC)c(C(c2c(C)n[nH]c2O)c2c(C)n[nH]c2O)c1	–	0.211 µM (active)	0.296 µM (active)	–
O=C(NC1C(=O)NNC1c1ccccc1)c1ccccc1 (stereo not given)	–	4.83 µM (active)	8.8 µM (active)	EC50 [9]: 246 µM (active)
COc1cc(/C=N/NC(=O)c2nc(C)cc(C)n2)ccc1O	35.3 µM (active)	–	–	EC50 [1]: > 53 µM (inactive); IC50 (Large T antigen): 39.5 µM (active)
Cc1nn(-c2cccc(Cl)c2)c2c1C(c1ccncc1)C(C#N)=C(N)O2 (stereo not given)	–	7.71 µM (active)	9.1 µM (active)	EC50 [9]: > 260 µM (inactive)
FC(F)(F)c1ccc(-c2csc(-c3ccno3)n2)cc1	–	–	–	IC50 (Protein skinhead-1): 23.1 µM (active)
Cc1ccc(C/N=C/c2[nH]c3ccc(Br)c(Cl)c3c2O)cc1	–	1.43 µM (active)	> 380 µM (inactive)	–
COc1ccc(CN2CCN(C(=O)CC(C)C)CC2)cc1OC	161 µM (active)	–	–	–
COc1ccc(CN2C(=O)NC(=O)/C(=C\NNC(=O)c3ccccc3O)C2=O)cc1	–	32.2 µM (active)	2.69 µM (active)	–
O=C(N/N=C/c1ccc(N2CCOCC2)s1)c1ccc(O)cc1	23.5 µM (active)	–	–	–
